Common to all, as to experiment: NMM fluorescence enhancement
The test system of assay [1] is 55PYO4A (DNA, aptamer) GATCGGAATGGGAGCGAATGAGGAGGGAGCGCGGACATGGTGCAGCAGCCCGACG
To be noted: 10 mM KCl, 2 mM MgSO4 (added), 0.37 mM CaCl2; SSMB1 pH 5.9, 23 °C; 2 µM aptamer, 2 µM NMM.

The subject of assay [2] is 55PYO2A (DNA, aptamer) CTAGGAATCAGGAGCGAATGTTAGAGTATTTGGATAGTATGTTTATTGTATCGGC
To be noted: 10 mM KCl, 2 mM MgSO4 (added), 0.37 mM CaCl2; SSMB1 pH 5.9, 23 °C; 2 µM aptamer, 2 µM NMM; no enhancement over control.

The subject of assay [3] is Oligo 5637 (DNA, single strand) GCCTGTTGTGAGCCTCCTGTCGAAGTATGCGATAGGAGCGAATGATATATATCAAGTTACCACACGGATGTACTTGCTTGAGCGTTTATTCTTGTCTCCC
To be noted: 10 mM KCl, 2 mM MgSO4 (added), 0.37 mM CaCl2; SSMB1 pH 5.9, 23 °C; 2 µM aptamer, 2 µM NMM; no enhancement over control.

Assay [4] deals with 15THR1A (DNA, aptamer) GGTTGGTGTGGTTGG
The note with it: 10 mM KCl, 2 mM MgSO4 (added), 0.37 mM CaCl2; SSMB1 pH 5.9, 23 °C; 2 µM aptamer, 2 µM NMM.

On to `CCc1c(C)c2cc3nc(cc4nc(cc5c(CC)c(C)c(cc1[nH]2)n5C)C(C)=C4CCC(=O)O)C(CCC(=O)O)=C3C`, for which the binding entry in assay [1] is listed as “yes”; in assay [2], “no”; in assay [3], “no”; in assay [4] it was “yes”.

The record behind these values is publication PMC11324436 (2024).
